# Test results reported in patent US20200085776A1, “Methods of Reducing C-Reactive Protein and/or Treating Cardiovascular Disease” (CARDAX, INC., priority 2018, published 2020).
# What was measured:
# [1] = tested on: LDL; assay: Fasting lipid panel: LDL, CHASE clinical study; format: in vivo, human; details: for LDL V2 to V6 % Change Max / LDL V2 to V6 % Change Mean (SD) / LDL V2 to V6 % Change Median / LDL V2 to V6 % Change Min / LDL V2 to V6 Change Max / LDL V2 to V6 Change Mean (SD) / LDL V2 to V6 Change Median / LDL V2 to V6 Change Min: baseline to Week 12
# Description: (§1) Blood samples shall be obtained under fasted conditions for a lipid panel at V2, V4, V6, V7, and V8. This panel shall include total cholesterol, LDL-C, VLDL-C, HDL-C, and triglycerides. A minimum eight-hour fast (water allowed) is required for the lipid panel.
# (§2) Fasting lipid profiles and fasting chemistry panels may be obtained within the visit time window on a day separate from the scheduled office visit, within two days before or after the other study procedures. A minimum of eight hours fasted (water allowed ad lib) is required.
# (§3) Table 7M provides the changes in lipid levels (mg/dL) (V2 to V6) for subjects.
# [2] = tested on: Cholesterol; assay: Fasting lipid panel: total cholesterol, CHASE clinical study; format: in vivo, human; details: for Cholesterol V2 to V6 % Change Max / Cholesterol V2 to V6 % Change Mean (SD) / Cholesterol V2 to V6 % Change Median / Cholesterol V2 to V6 % Change Min / Cholesterol V2 to V6 Change Max / Cholesterol V2 to V6 Change Mean (SD) / Cholesterol V2 to V6 Change Median / Cholesterol V2 to V6 Change Min: baseline to Week 12
# Description: as §1, §2, §3
# [3] = Group X 12 mg BID, V2 baseline pre-dose, all subjects
# [4] = Group X 12 mg BID, V2 baseline pre-dose, subjects with hyperlipidemia
# [5] = Group X 12 mg BID, V6 Week 12, all subjects
# [6] = Group X 12 mg BID, V6 Week 12, subjects with hyperlipidemia
# [7] = Group X 12 mg BID, all subjects
# [8] = Group X 12 mg BID, subjects with hyperlipidemia
# [9] = Group Z 48 mg BID, V2 baseline pre-dose, all subjects
# [10] = Group Z 48 mg BID, V2 baseline pre-dose, subjects with hyperlipidemia
# [11] = Group Z 48 mg BID, V6 Week 12, all subjects
# [12] = Group Z 48 mg BID, V6 Week 12, subjects with hyperlipidemia
# [13] = Group Z 48 mg BID, all subjects
# [14] = Group Z 48 mg BID, subjects with hyperlipidemia
smiles,measurement,setting,value
"CC1=C(/C=C/C(C)=C/C=C/C(C)=C/C=C/C=C(C)/C=C/C=C(C)/C=C/C2=C(C)C(=O)C(O)CC2(C)C)C(C)(C)CC(O)C1=O (centres unmarked) [Astaxanthin, astaxanthin]",LDL Max,[1]; [3],220.0 mg/dL
same,LDL Mean (SD),[1]; [3],111.9 (61.26) mg/dL
same,LDL Median,[1]; [3],112.0 mg/dL
same,LDL Min,[1]; [3],37.00 mg/dL
same,LDL Max,[1]; [4],220.0 mg/dL
same,LDL Mean (SD),[1]; [4],99.00 (66.54) mg/dL
same,LDL Median,[1]; [4],73.00 mg/dL
same,LDL Min,[1]; [4],37.00 mg/dL
same,LDL Max,[1]; [5],236.0 mg/dL
same,LDL Mean (SD),[1]; [5],109.6 (67.65) mg/dL
same,LDL Median,[1]; [5],102.0 mg/dL
same,LDL Min,[1]; [5],40.00 mg/dL
same,LDL Max,[1]; [6],236.0 mg/dL
same,LDL Mean (SD),[1]; [6],94.57 (70.92) mg/dL
same,LDL Median,[1]; [6],60.00 mg/dL
same,LDL Min,[1]; [6],40.00 mg/dL
same,LDL V2 to V6 % Change Max,[1]; [7],21.62%
same,LDL V2 to V6 % Change Mean (SD),[1]; [7],−3.46 (13.64) %
same,LDL V2 to V6 % Change Median,[1]; [7],−7.02%
same,LDL V2 to V6 % Change Min,[1]; [7],−21.6%
same,LDL V2 to V6 Change Max,[1]; [7],17.00 mg/dL
same,LDL V2 to V6 Change Mean (SD),[1]; [7],−2.30 (12.98) mg/dL
same,LDL V2 to V6 Change Median,[1]; [7],-6.50 mg/dL
same,LDL V2 to V6 Change Min,[1]; [7],-18.0 mg/dL
same,LDL V2 to V6 % Change Max,[1]; [8],21.62%
same,LDL V2 to V6 % Change Mean (SD),[1]; [8],−5.19 (15.13) %
same,LDL V2 to V6 % Change Median,[1]; [8],−10.2%
same,LDL V2 to V6 % Change Min,[1]; [8],−21.6%
same,LDL V2 to V6 Change Max,[1]; [8],16.00 mg/dL
same,LDL V2 to V6 Change Mean (SD),[1]; [8],−4.43 (12.39) mg/dL
same,LDL V2 to V6 Change Median,[1]; [8],-11.0 mg/dL
same,LDL V2 to V6 Change Min,[1]; [8],-18.0 mg/dL
same,LDL Max,[1]; [9],206.0 mg/dL
same,LDL Mean (SD),[1]; [9],99.13 (46.59) mg/dL
same,LDL Median,[1]; [9],84.00 mg/dL
same,LDL Min,[1]; [9],34.00 mg/dL
same,LDL Max,[1]; [10],166.0 mg/dL
same,LDL Mean (SD),[1]; [10],89.33 (40.83) mg/dL
same,LDL Median,[1]; [10],75.50 mg/dL
same,LDL Min,[1]; [10],34.00 mg/dL
same,LDL Max,[1]; [11],176.0 mg/dL
same,LDL Mean (SD),[1]; [11],90.31 (37.82) mg/dL
same,LDL Median,[1]; [11],81.00 mg/dL
same,LDL Min,[1]; [11],49.00 mg/dL
same,LDL Max,[1]; [12],176.0 mg/dL
same,LDL Mean (SD),[1]; [12],82.42 (37.25) mg/dL
same,LDL Median,[1]; [12],70.00 mg/dL
same,LDL Min,[1]; [12],49.00 mg/dL
same,LDL V2 to V6 % Change Max,[1]; [13],15.71%
same,LDL V2 to V6 % Change Mean (SD),[1]; [13],−14.5 (17.99) %
same,LDL V2 to V6 % Change Median,[1]; [13],−12.0%
same,LDL V2 to V6 % Change Min,[1]; [13],−50.0%
same,LDL V2 to V6 Change Max,[1]; [13],11.00 mg/dL
same,LDL V2 to V6 Change Mean (SD),[1]; [13],−18.9 (24.97) mg/dL
same,LDL V2 to V6 Change Median,[1]; [13],-11.0 mg/dL
same,LDL V2 to V6 Change Min,[1]; [13],-83.0 mg/dL
same,LDL V2 to V6 % Change Max,[1]; [14],15.00%
same,LDL V2 to V6 % Change Mean (SD),[1]; [14],−17.4 (18.43) %
same,LDL V2 to V6 % Change Median,[1]; [14],−12.5%
same,LDL V2 to V6 % Change Min,[1]; [14],−50.0%
same,LDL V2 to V6 Change Max,[1]; [14],9.00 mg/dL
same,LDL V2 to V6 Change Mean (SD),[1]; [14],−20.5 (26.25) mg/dL
same,LDL V2 to V6 Change Median,[1]; [14],-11.0 mg/dL
same,LDL V2 to V6 Change Min,[1]; [14],-83.0 mg/dL
same,Cholesterol Max,[2]; [3],342.0 mg/dL
same,Cholesterol Mean (SD),[2]; [3],192.0 (65.49) mg/dL
same,Cholesterol Median,[2]; [3],180.0 mg/dL
same,Cholesterol Min,[2]; [3],113. mg/dL
same,Cholesterol Max,[2]; [4],342.0 mg/dL
same,Cholesterol Mean (SD),[2]; [4],184.5 (73.91) mg/dL
same,Cholesterol Median,[2]; [4],164.0 mg/dL
same,Cholesterol Min,[2]; [4],113.0 mg/dL
same,Cholesterol Max,[2]; [5],339.0 mg/dL
same,Cholesterol Mean (SD),[2]; [5],182.6 (70.21) mg/dL
same,Cholesterol Median,[2]; [5],163.0 mg/dL
same,Cholesterol Min,[2]; [5],117.0 mg/dL
same,Cholesterol Max,[2]; [6],339.0 mg/dL
same,Cholesterol Mean (SD),[2]; [6],170.3 (74.95) mg/dL
same,Cholesterol Median,[2]; [6],137.5 mg/dL
same,Cholesterol Min,[2]; [6],117.0 mg/dL
same,Cholesterol V2 to V6 % Change Max,[2]; [7],6.67%
same,Cholesterol V2 to V6 % Change Mean (SD),[2]; [7],−5.34 (10.55) %
same,Cholesterol V2 to V6 % Change Median,[2]; [7],−4.90%
same,Cholesterol V2 to V6 % Change Min,[2]; [7],−25.0%
same,Cholesterol V2 to V6 Change Max,[2]; [7],17.00 mg/dL
same,Cholesterol V2 to V6 Change Mean (SD),[2]; [7],−9.45 (18.08) mg/dL
same,Cholesterol V2 to V6 Change Median,[2]; [7],-7.00 mg/dL
same,Cholesterol V2 to V6 Change Min,[2]; [7],-39.0 mg/dL
same,Cholesterol V2 to V6 % Change Max,[2]; [8],6.20%
same,Cholesterol V2 to V6 % Change Mean (SD),[2]; [8],−7.65 (11.10) %
same,Cholesterol V2 to V6 % Change Median,[2]; [8],−6.92%
same,Cholesterol V2 to V6 % Change Min,[2]; [8],−25.0%
same,Cholesterol V2 to V6 Change Max,[2]; [8],8.00 mg/dL
same,Cholesterol V2 to V6 Change Mean (SD),[2]; [8],−14.3 (17.60) mg/dL
same,Cholesterol V2 to V6 Change Median,[2]; [8],-14.0 mg/dL
same,Cholesterol V2 to V6 Change Min,[2]; [8],-39.0 mg/dL
same,Cholesterol Max,[2]; [9],316.0 mg/dL
same,Cholesterol Mean (SD),[2]; [9],195.1 (57.82) mg/dL
same,Cholesterol Median,[2]; [9],190.0 mg/dL
same,Cholesterol Min,[2]; [9],121.0 mg/dL
same,Cholesterol Max,[2]; [10],316.0 mg/dL
same,Cholesterol Mean (SD),[2]; [10],189.7 (58.32) mg/dL
same,Cholesterol Median,[2]; [10],173.0 mg/dL
same,Cholesterol Min,[2]; [10],121.0 mg/dL
same,Cholesterol Max,[2]; [11],284.0 mg/dL
same,Cholesterol Mean (SD),[2]; [11],169.7 (45.52) mg/dL
same,Cholesterol Median,[2]; [11],160.5 mg/dL
same,Cholesterol Min,[2]; [11],104.0 mg/dL
same,Cholesterol Max,[2]; [12],284.0 mg/dL
same,Cholesterol Mean (SD),[2]; [12],161.9 (46.52) mg/dL
same,Cholesterol Median,[2]; [12],151.0 mg/dL
same,Cholesterol Min,[2]; [12],104.0 mg/dL
same,Cholesterol V2 to V6 % Change Max,[2]; [13],15.86%
same,Cholesterol V2 to V6 % Change Mean (SD),[2]; [13],−8.52 (14.73) %
same,Cholesterol V2 to V6 % Change Median,[2]; [13],−8.29%
same,Cholesterol V2 to V6 % Change Min,[2]; [13],−38.0%
same,Cholesterol V2 to V6 Change Max,[2]; [13],32.00 mg/dL
same,Cholesterol V2 to V6 Change Mean (SD),[2]; [13],−18.6 (31.99) mg/dL
same,Cholesterol V2 to V6 Change Median,[2]; [13],-13.5 mg/dL
same,Cholesterol V2 to V6 Change Min,[2]; [13],-92.0 mg/dL
same,Cholesterol V2 to V6 % Change Max,[2]; [14],15.86%
same,Cholesterol V2 to V6 % Change Mean (SD),[2]; [14],−9.11 (16.06) %
same,Cholesterol V2 to V6 % Change Median,[2]; [14],−8.48%
same,Cholesterol V2 to V6 % Change Min,[2]; [14],−38.0%
same,Cholesterol V2 to V6 Change Max,[2]; [14],32.00 mg/dL
same,Cholesterol V2 to V6 Change Mean (SD),[2]; [14],−18.8 (33.97) mg/dL
same,Cholesterol V2 to V6 Change Median,[2]; [14],-13.5 mg/dL
same,Cholesterol V2 to V6 Change Min,[2]; [14],-92.0 mg/dL
